Holding throughout (format): cell-based
Assay [1] deals with Bifidobacterium animalis subsp. lactis JCM10602 strain. In words: Induction of EPS production by L-fucose in JCM10602 strain. The conditions noted are these: anaerobic, 37° C.; for amount of EPS produced, extracted with ethanol / amount of EPS produced, extracted with trichloracetic acid: 0.5% sugar in mMRS culture medium, 96 hours, culture supernatant. The method, then: In order to confirm whether the production of EPS is induced by L-fucose in other bacteria of the genus Bifidobacterium, the following test was carried out using the JCM10602 strain and the JCM1192 strain.
Note that the JCM10602 strain is Bifidobacterium animalis subsp. lactis (i.e., Bifidobacterium lactis), which is frequently used as a probiotic and is known to produce EPS at a high level, and the JCM1192 strain is a standard strain of Bifidobacterium breve, which is the same species as AT-APC-FucE1.
The JCM10602 strain was anaerobically cultured in a 0.5% Fuc mMRS culture medium and in a 0.5% Glu mMRS culture medium at 37° C. for 96 hours by the method described in Test 3 above.
When the EPS extracted from the culture supernatant was assayed, the amount of EPS produced in the culture medium using D-glucose (that is, the 0.5% Glu mMRS culture medium) was 132.97 mg/1000 mL (when extracted with trichloracetic acid) and 4.74 mg/1000 mL (when extracted with ethanol), whereas the amount of EPS produced in the culture medium using L-fucose (that is, the 0.5% Fuc mMRS culture medium) was 166.2 mg/1000 mL (when extracted with trichloracetic acid) and 13.33 mg/1000 mL (when extracted with ethanol).

The test system of assay [2] is Bifidobacterium breve AT-APC-FucE1 strain. Briefly: Influence of presence or absence of L-fucose in culture medium on EPS production amount by AT-APC-FucE1 strain. The conditions noted are these: 0.5% sugar in mMRS culture medium, anaerobic, 37° C., 96 hours. The method, then: The 0.5% Glu mMRS culture medium was inoculated with the AT-APC-FucE1 strain, and pre-culturing was implemented anaerobically at 37° C. for 24 hours. An amount of 100 μL of the pre-cultured culture solution was inoculated into each of a 0.5% Fuc mMRS culture medium (mMRS liquid culture medium comprising 0.5 wt. % of L-fucose) and a 0.5% Glu mMRS culture medium, and then cultured anaerobically at 37° C. for 96 hours.
The amount of crude EPS extracted from the supernatant of each culture solution was approximately the same (13.33 mg/1000 mL). However, when the amount of protein in these crude EPS samples was measured, and the amount of protein was subtracted from the amount of crude EPS, the amount of EPS produced in the culture medium that used D-glucose (that is, the 0.5% Glu mMRS culture medium) was 9.34 mg/1000 mL, whereas the amount of EPS produced in the culture medium that used L-fucose (that is, the 0.5% Fuc mMRS culture medium) was 13.14 mg/1000 mL.

Assay [3] concerns Bifidobacterium breve JCM1192 strain. In words: Induction of EPS production by L-fucose in JCM1192 strain. The conditions noted are these: JCM1192, standard strain of Bifidobacterium breve. The method, then:
In order to confirm whether the production of EPS is induced by L-fucose in other bacteria of the genus Bifidobacterium, the following test was carried out using the JCM10602 strain and the JCM1192 strain. Note that the JCM10602 strain is Bifidobacterium animalis subsp. lactis (i.e., Bifidobacterium lactis), which is frequently used as a probiotic and is known to produce EPS at a high level, and the JCM1192 strain is a standard strain of Bifidobacterium breve, which is the same species as AT-APC-FucE1.

Assay [4] deals with Bifidobacterium breve AT-APC-FucE1 strain. In words: Confirmation of EPS production through culturing of AT-APC-FucE1 strain (transmission electron microscope). The conditions noted are these: 1% Fuc mMRS culture medium vs 1% Glu mMRS culture medium, anaerobic, 37° C., 12 hours, transmission electron microscope (FIGS. 4 and 5). From the text:
An mMRS liquid culture medium comprising 0.5 wt. % and an mMRS liquid culture medium comprising 1 wt. % of D-glucose (hereinafter, the respective mMRS liquid culture mediums are also referred to as a “0.5% Glu mMRS culture medium” and a “1% Glu mMRS culture medium”, respectively) (composition: 10 g/L of beef extract, 5 g/L of yeast extract, 2 g/L of ammonium citrate, 5 g/L of sodium acetate, 0.1 g/L of magnesium sulfate, 0.05 g/L of manganese sulfate, 2 g/L of dipotassium hydrogen phosphate, 0.5 g/L of L-cysteine hydrochloride, and 0.5% or 1% D-glucose) were prepared. The 0.5% Glu mMRS culture medium was inoculated with the AT-APC-FucE1 strain, and pre-culturing was implemented anaerobically at 37° C. for 24 hours.
The 1% Fuc mMRS culture medium was then inoculated with 100 μL of the pre-cultured culture solution, and anaerobic culturing was carried out at 37° C. The AT-APC-FucE1 strain was collected from the culture solution that had been cultured for 12 hours, after which the bacterial cells were washed with phosphate-buffered saline (PBS), and subsequently, the bacterial cells were immobilized on a membrane, and the EPS production by the bacterial cells was confirmed using a transmission electron microscope. […]

The structures appear in SMILES notation.

Turning to `O=C[C@H](O)[C@@H](O)[C@H](O)[C@H](O)CO` [D-glucose, reference compound], in assay [1], the “amount of EPS produced, extracted with ethanol” value stood at 4.74 mg/1000 mL and the “amount of EPS produced, extracted with trichloracetic acid” value is on record as 132.97 mg/1000 mL. Further, in assay [2], the “amount of EPS produced (amount of protein subtracted from amount of crude EPS)” value was 9.34 mg/1000 mL and the “amount of crude EPS extracted from the supernatant of culture solution” value is given as roughly 13.33 mg/1000 mL.
For `C[C@H](O)[C@@H](O)[C@@H](O)[C@H](O)C=O` [L-fucose], the “induction of EPS production” value in assay [3] is “significant production induction by L-fucose was not confirmed”. For the same compound, the “production of EPS (electron microscope observation)” value in assay [1] (0.5% Fuc mMRS vs 0.5% Glu mMRS culture medium, 96 hours (FIG. 7)) was “improved”. In addition, in assay [1], the “amount of EPS produced, extracted with ethanol” value is on record as 13.33 mg/1000 mL and the “amount of EPS produced, extracted with trichloracetic acid” value was determined as 166.2 mg/1000 mL. Moreover, in assay [2], the “amount of EPS produced (amount of protein subtracted from amount of crude EPS)” value was 13.14 mg/1000 mL and the “amount of crude EPS extracted from the supernatant of culture solution” value is reported as roughly 13.33 mg/1000 mL. For the same compound, the “EPS production by the bacterial cells” value in assay [4] was “remarkably promoted”.

(Values after patent publication US20250002955A1, “Method for Promoting Production of Exopolysaccharide by Bifidobacterium Bacteria” (TOHOKU UNIVERSITY, priority 2021, published 2025).)
